From patent publication EP0528699B1, “Saishin N derivatives, process for their preparation and anti-ulcer agents containing them” (TOKYO TANABE COMPANY LIMITED, priority 1991, dated 1993)

These compounds were tested on Hydrochloric acid-Ethanol-Induced Ulcers (assay: Hydrochloric acid-Ethanol-Induced Ulcers). Conditions: Rattus norvegicus, intraduodenal, 3 h, Table 1; dose 20 mg/kg intraduodenally three hours before hydrochloric acid - 60% ethanol; read-out: Inhibition ratio(%).
Type: in vivo, male Wister rats
Method: (§1) Experiments on Hydrochloric acid-Ethanol-Induced Ulcers, Aspirin-Induced Ulcers, Water-Immersion stress-Induced Ulcers, Shay's Ulcers and Serotonin-Induced Ulcers were carried out using male Wister rats weighing about 200g in groups of six. Experiments on Ischemia-Reperfusion -Induced Gastric Lesions were carried out using male SD rats weighing about 250g in groups of six. Other than for the tests on Ischemia-Reperfusion-Induced Gastric Lesions Models, the test compounds were prepared by mixing thoroughly with polyethyleneglycol and 0.5% sodium carboxymethyl cellulose solution and emulsifying vigorously. Activities against respective ulcer models were evaluated by an inhibiting ratio obtained by dividing the difference between the ulceration indexes of the non-administered group and the test compound group by the non-administered group.
To each rat which had been fasted for 24 hours was orally administered 0.5ml of a mixed solution of 150 mM hydrochloric acid - 60% ethanol per 100g of weight. Each rat was slaughtered after one hour, a length of ulcer formed at the fundus gland area of stomach was measured and ulceration index was calculated based on the length. The test compound was administered intraduodenally one hour or three hours before the administration of mixed solution of hydrochloric acid - 60% ethanol.

Compound | inhibition in vivo at 20 mg/kg [%]
CC(=O)OC1CC(C)C(=O)CC(C)(C)C1OC(C)=O (stereo not drawn) [AU117, 2,4-cis-4,5-diacetoxy-2,6,6-trimethylcycloheptan-1-one] | 62
CC1=CC(OC(=O)c2ccc([N+](=O)[O-])cc2Cl)C(O)C(C)(C)CC1=O (stereo not drawn) [AU219, 4-(2-chloro-4-nitrobenzoyloxy)-5-hydroxy-2,6,6-trimethyl-2-cyclohepten-1-one] | 60
COC1C(OC(=O)c2ccccc2)C=C(C)C(=O)CC1(C)C (stereo not drawn) [AU223, 4-benzoyloxy-5-methoxy-2,6,6-trimethyl-2-cyclohepten-1-one] | 49
CC(=O)Nc1cccc(C(=O)OC2C(OC(C)=O)C=C(C)C(=O)CC2(C)C)c1 (stereo not drawn) [AU224, 5-(3-acetamidobenzoyloxy)-4-acetoxy-2,6,6-trimethyl-2-cyclohepten-1-one] | 47
CC1=CC(=O)C(OC(=O)c2ccccc2)C(C)(C)CC1=O (stereo not drawn) [AU225, 5-benzoyloxy-2,6,6-trimethyl-2-cyclohepten-1,4-dione] | 36
COC1C(O)C=C(C)C(OC(=O)c2ccccc2)CC1(C)C (stereo not drawn) [AU227, 1-benzoyloxy-5-methoxy-2,6,6-trimethyl-2-cyclohepten-4-ol] | 47
CC1=CC(OC(=O)c2ccc(N(C)C)cc2)C(O)C(C)(C)CC1=O (stereo not drawn) [AU236, 4-(4-dimethylaminobenzoyloxy)-5-hydroxy-2,6,6-trimethyl-2-cyclohepten-1-one] | 45
CC(=O)Nc1ccc(C(=O)OC2C=C(C)C(=O)CC(C)(C)C2O)cc1 (stereo not drawn) [AU237, 4-(4-acetamidobenzoyloxy)-5-hydroxy-2,6,6-trimethyl-2-cyclohepten-1-one] | 30
COC1C(OC(=O)c2ccc([N+](=O)[O-])cc2)C=C(C)C(=O)CC1(C)C (stereo not drawn) [AU238, 5-methoxy-4-(4-nitrobenzoyloxy)-2,6,6-trimethyl-2-cyclohepten-1-one] | 40
COC1C(OC(=O)c2ccc(N)cc2)C=C(C)C(=O)CC1(C)C (stereo not drawn) [AU239, 4-(4-aminobenzoyloxy)-5-methoxy-2,6,6-trimethyl-2-cyclohepten-1-one] | 41
CC1=CC(O)C(OC(=O)c2ccc(N)cc2N)C(C)(C)CC1=O (stereo not drawn) [AU241, 5-(2,4-diaminobenzoyloxy)-4-hydroxy-2,6,6-trimethyl-2-cyclohepten-1-one] | 37
CC1=CC(OC(=O)c2ccc(N)cc2N)C(O)C(C)(C)CC1=O (stereo not drawn) [AU242, 4-(2,4-diaminobenzoyloxy)-5-hydroxy-2,6,6-trimethyl-2-cyclohepten-1-one] | 60
COC1C=C(C)C(=O)CC(C)(C)C1OC(=O)Cc1csc(N)n1 (stereo not drawn) [AU243, 5-(2-aminothiazol-4-yl) acetoxy-4-methoxy-2,6,6-trimethyl-2-cyclohepten-1-one] | 29
CC1=CC(OC(=O)c2ccc(N)cc2)C2OC1(OCCO)CC2(C)C (stereo not drawn) [AU249, 4-(4-aminobenzoyloxy)-1-(2-hydroxyethoxy)-2,6,6-trimethyl-8-oxabicyclo [3.2.1] oct-2-ene] | 65
CC1CC(O)C2OC1(OC(=O)c1ccc([N+](=O)[O-])cc1)CC2(C)C (stereo not drawn) [AU250, 2,4-cis-1-(4-nitrobenzoyloxy):2,6,6-trimethyl-8-oxabicyclo [3.2.1] octan-4-ol] | 36
CC1CC(O)C2OC1(OC(=O)c1ccc(N)cc1)CC2(C)C (stereo not drawn) [AU251, 2,4-cis-1-(4-aminobenzoyloxy)-2,6,6-trimethyl-8-oxabicyclo [3.2.1] octan-4-ol] | 30
CC1CC(O)C2OC1(OC(=O)c1ccccc1)CC2(C)C (stereo not drawn) [AU252, 2,4-cis-1-benzoyloxy-2,6,6-trimethyl-8-oxabicyclo [3.2.1] octan-4-ol] | 31
CC1=CC(OC(=O)C=Cc2ccc(N)cc2)C(O)C(C)(C)CC1=O (stereo not drawn) [AU401, 4-(4-aminocinnamoyloxy)-5-hydroxy-2,6,6-trimethyl-2-cyclohepten-1-one] | 49
CC1=CC(OC(=O)c2ccco2)C(O)C(C)(C)CC1=O (stereo not drawn) [AU403, 4-(2-furoyloxy)-5-hydroxy-2,6,6-trimethyl-2-cyclohepten-1-one] | 31
COC1C=C(C)C(=O)CC(C)(C)C1OC(=O)c1ccc(N)c(N)c1 (stereo not drawn) [AU410, 5-(3,4-diaminobenzoyloxy)-4-methoxy-2,6,6-trimethyl-2-cyclohepten-1-one] | 75
COc1cc(C=CC(=O)OC2C(O)C=C(C)C(=O)CC2(C)C)ccc1O (stereo not drawn) [AU414, 4-hydroxy-5-(4-hydroxy-3-methoxycinnamoyloxy)-2,6,6-trimethyl-2-cyclohepten-1-one] | 89
COC1C=C(C)C(=O)CC(C)(C)C1OC(=O)c1ccc2nc(N)[nH]c2c1 (stereo not drawn) [AU415, 5-(2-aminobenzimidazolyl-5-carbonyloxy)-4-methoxy-2,6,6-trimethyl-2-cyclohepten-1-one] | 30
COc1cc(C=CC(=O)OC2C=C(C)C(=O)CC(C)(C)C2O)ccc1O (stereo not drawn) [AU416, 5-hydroxy-4-(4-hydroxy-3-methoxycinnamoyloxy)-2,6,6-trimethyl-2-cyclohepten-1-one] | 72
COc1cc(C=CC(=O)OC2C=C(C)C3(OC)CC(C)(C)C2O3)ccc1O (stereo not drawn) [AU417, 4-(4-hydroxy-3-methoxycinnamoyloxy)-1-methoxy-2,6,6-trimethyl-8-oxabicyclo [3.2.1] oct-2-ene] | 69
CC1=CC(O)C(OC(=O)c2nc[nH]c2C)C(C)(C)CC1=O (stereo not drawn) [AU504, 4-hydroxy-5-(5-methyl-4-imidazolylcarbonyloxy)-2,6,6-trimethyl-2-cyclohepten-1-one] | 39
CC1=CC(OC(=O)C=Cc2ccc(O)cc2)C(O)C(C)(C)CC1=O (stereo not drawn) [AU506, 5-hydroxy-4-(4-hydroxycinnamoyloxy)-2,6,6-trimethyl-2-cyclohepten-1-one] | 81
COC1C=C(C)C(=O)CC(C)(C)C1OC(=O)c1ccc2nc[nH]c2c1 (stereo not drawn) [AU507, 5-(5-benzimidazolylcarbonyloxy)-4-methoxy-2,6,6-trimethyl-2-cyclohepten-1-one] | 63
COC12CC(C)(C)C(O1)C(OC(=O)C=Cc1ccc(O)cc1)C=C2C (stereo not drawn) [AU508, 4-(4-hydroxycinnamoyloxy)-1-methoxy-2,6,6-trimethyl-8-oxabicyclo [3.2.1] oct-2-ene] | 82
COc1ccc(COC2C=C(C)C(=O)CC(C)(C)C2O)cc1 (stereo not drawn) [AUM09, 5-hydroxy-4-(4-methoxybenzyloxy)-2,6,6-trimethyl-2-cyclohepten-1-one] | 17

What follows are compounds tested on Water-Immersion stress-Induced Ulcers (assay: Water-Immersion stress-Induced Ulcers). Conditions: Rattus norvegicus, po, 10 h; dose 20 mg/kg orally 10 minutes before the exposure to stress; read-out: Water-Immersion Stress, inhibiting ratio.
Type: in vivo, male Wister rats
Method: as §1
Each rat which had been fasted for 15 hours was immobilized in a stress cage and immersed to chest depth in a water bath at 21°C. Each rat was slaughtered after 10 hours, a length of ulcer formed at the fundus gland area of stomach was measured and ulceration index was calculated based on the length. The test compound was administered orally 10 minutes before the exposure to stress.
(§2) The results of Aspirin-Induced Ulcers, Water-immersion stress-Induced Ulcers, Shay's Ulcers, Serotonin-induced Ulcers and Ischemia-Reperfusion-Induced Gastric lesions are shown in Table 3.

Compound | inhibition in vivo at 20 mg/kg [%]
CC1=CC(OC(=O)c2ccc(N)cc2)C2OC1(OCCO)CC2(C)C (stereo not drawn) [AU249, 4-(4-aminobenzoyloxy)-1-(2-hydroxyethoxy)-2,6,6-trimethyl-8-oxabicyclo [3.2.1] oct-2-ene] | 33
COc1cc(C=CC(=O)OC2C(O)C=C(C)C(=O)CC2(C)C)ccc1O (stereo not drawn) [AU414, 4-hydroxy-5-(4-hydroxy-3-methoxycinnamoyloxy)-2,6,6-trimethyl-2-cyclohepten-1-one] | 41

These compounds were tested on Serotonin-Induced Ulcers (assay: Serotonin-Induced Ulcers). Conditions: Rattus norvegicus, 4.5 h; dose 20 mg/kg intraduodenally 30 minutes before Serotonin creatinine sulfate 30 mg/kg subcutaneously; read-out: Serotonin, inhibiting ratio.
Type: in vivo, male Wister rats
Method: as §1
To each rat which had been fasted for 24 hours, 30 mg/kg of a solution of serotonin creatinine sulfate in a saline solution was administered subcutaneously. Each rat was then slaughtered after 4 and a half hours and area of gastric mucosal lesion formed facing the center line of greater curvature of the corpus ventriculi of stomach was measured and ulceration index was calculated based on the area. The test compound was administered intraduodenally 30 minutes before the administration of the Serotonin creatinine sulfate.
as §2

Compound | inhibition in vivo at 20 mg/kg [%]
CC(=O)OC1CC(C)C(=O)CC(C)(C)C1OC(C)=O (stereo not drawn) [AU117, 2,4-cis-4,5-diacetoxy-2,6,6-trimethylcycloheptan-1-one] | 60
CC1=CC(OC(=O)C=Cc2ccc(N)cc2)C(O)C(C)(C)CC1=O (stereo not drawn) [AU401, 4-(4-aminocinnamoyloxy)-5-hydroxy-2,6,6-trimethyl-2-cyclohepten-1-one] | 68
